Earlier results in PMC10949855 (Journal of veterinary pharmacology and therapeutics, 2022).

Tested on: dogs undergoing soft tissue surgery
Details: 0.4 mg/kg IV, ref Gomes et. al., 2020; cited from earlier work

SMILES: Oc1ccc2c(c1)[C@@]13CCCC[C@@]1(O)[C@@H](C2)N(CC1CCC1)CC3 [butorphanol]
- analgesia in clinical trial: insufficient analgesia
